Measurements taken from patent US10800782B2, “Inhibitors of cellular metabolic processes” (Agios Pharmaceuticals, Inc., priority 2016, dated 2020).

target: T1, MAT2A (Homo sapiens, UniProt P31153); assay: MAT2A biochemical assay (colorimetric inorganic phosphate detection, PiColorLock); details: recombinant His6-tagged MAT2A 1 μg/ml; 60 minutes preincubation at 25° C.; L-Met 80 μM, ATP 100 μM; 60 minutes reaction; read at 623 nm; read-out: MAT2A Inhibition Score
T1 construct: His6; made in house; host or cells: SF9 insect cells
T1 sequence (P31153 whole entry): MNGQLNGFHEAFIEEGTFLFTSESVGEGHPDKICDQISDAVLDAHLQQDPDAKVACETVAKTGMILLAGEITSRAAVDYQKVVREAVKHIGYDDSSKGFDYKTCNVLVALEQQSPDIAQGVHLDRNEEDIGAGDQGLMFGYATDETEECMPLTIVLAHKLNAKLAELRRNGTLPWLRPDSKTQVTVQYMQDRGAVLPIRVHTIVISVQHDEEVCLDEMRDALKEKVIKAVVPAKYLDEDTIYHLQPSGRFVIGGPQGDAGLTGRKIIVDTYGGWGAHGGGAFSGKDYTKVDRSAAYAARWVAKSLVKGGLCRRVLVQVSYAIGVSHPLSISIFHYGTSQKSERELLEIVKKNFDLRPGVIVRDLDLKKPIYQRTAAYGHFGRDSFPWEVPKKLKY
Summary of the method: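 Colorimetric malachite green readout of phosphate released when MAT2A turns over L-Met and ATP, after 60 min at room temperature. Enzyme: SF9-expressed His6-tagged MAT2A at 1 μg/ml. Buffer: Tris pH 8.0, 50 mM KCl, 15 mM MgCl2, 300 uM EDTA, 0.005% BSA. Compounds tested as ten-point three-fold dilutions.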

`Cc1[nH]c2c(N3CCCCC3)c(-c3ccccc3)nn2c(=O)c1-c1ccncc1` [Compound 304, 5-methyl-2-phenyl-3-(piperidin-1-yl)-6-(pyridin-4-yl)pyrazolo[1,5-a]pyrimidin-7(4H)-one] and `Cc1[nH]c2c(N3CCCCC3)c(-c3ccccc3)nn2c(=O)c1-c1ccc(N)cc1` [Compound 307, 6-(4-aminophenyl)-5-methyl-2-phenyl-3-(piperidin-1-yl)pyrazolo[1,5-a]pyrimidin-7(4H)-one] fall in the same range of IC50: 0.1 to 1 µM for the first, 0.1 to 1 µM for the second.

First: Cc1[nH]c2c(N3CCCCC3)c(-c3ccccc3)nn2c(=O)c1-c1ccc(C(N)=O)cc1 [Compound 305, 4-(5-methyl-7-oxo-2-phenyl-3-(piperidin-1-yl)-4,7-dihydropyrazolo[1,5-a]pyrimidin-6-yl)benzamide]
Second: CC(=O)Nc1ccc(-c2c(C)[nH]c3c(N4CCCCC4)c(-c4ccccc4)nn3c2=O)cc1 [Compound 308, N-(4-(5-methyl-7-oxo-2-phenyl-3-(piperidin-1-yl)-4,7-dihydropyrazolo[1,5-a]pyrimidin-6-yl)phenyl)acetamide]
The IC50 of the first is lower: 0.1 to 1 µM for the first, 1 to 10 µM for the second.

First: Cc1[nH]c2c(N3CCCCC3)c(-c3ccccc3)nn2c(=O)c1-c1ccc(S(C)(=O)=O)cc1 [Compound 306, 5-methyl-6-(4-(methylsulfonyl)phenyl)-2-phenyl-3-(piperidin-1-yl)pyrazolo[1,5-a]pyrimidin-7(4H)-one]
Second: Cc1[nH]c2c(N3CCCCC3)c(-c3ccccc3)nn2c(=O)c1-c1ccc(O)nc1 [Compound 309, 6-(6-hydroxypyridin-3-yl)-5-methyl-2-phenyl-3-(piperidin-1-yl)pyrazolo[1,5-a]pyrimidin-7(4H)-one]
The IC50 of the first is higher: 1 to 10 µM for the first, 0.1 to 1 µM for the second.

First: Cc1[nH]c2c(N3CCCCC3)c(-c3ccccc3)nn2c(=O)c1-c1cscn1 [Compound 310, 5-methyl-2-phenyl-3-(piperidin-1-yl)-6-(thiazol-4-yl)pyrazolo[1,5-a]pyrimidin-7(4H)-one]
Second: Cc1[nH]c2c(N3CCCCC3)c(-c3ccccc3)nn2c(=O)c1N1CCC(O)CC1 [Compound 311, 6-(4-hydroxypiperidin-1-yl)-5-methyl-2-phenyl-3-(piperidin-1-yl)pyrazolo[1,5-a]pyrimidin-7(4H)-one]
The IC50 of the first is higher: 1 to 10 µM for the first, 0.1 to 1 µM for the second.

`CCc1[nH]c2c(-c3ccccc3)c(-c3ccccc3)nn2c(=O)c1-c1ccc(OC)cc1` [Compound 312, 5-ethyl-6-(4-methoxyphenyl)-2,3-diphenylpyrazolo[1,5-a]pyrimidin-7(4H)-one] and `COc1ccc(-c2c(C#N)[nH]c3c(-c4ccccc4)c(-c4ccccc4)nn3c2=O)cc1` [Compound 314, 6-(4-methoxyphenyl)-7-oxo-2,3-diphenyl-4,7-dihydropyrazolo[1,5-a]pyrimidine-5-carbonitrile] fall in the same range of IC50: 0.1 to 1 µM for the first, 0.1 to 1 µM for the second.

`COc1ccc(-c2c(C(N)=O)[nH]c3c(-c4ccccc4)c(-c4ccccc4)nn3c2=O)cc1` [Compound 315, 6-(4-methoxyphenyl)-7-oxo-2,3-diphenyl-4,7-dihydropyrazolo[1,5-a]pyrimidine-5-carboxamide] and `COc1ccc(-c2c(CNC(=O)[C@@H](N)C(C)C)[nH]c3c(-c4ccccc4)c(-c4ccccc4)nn3c2=O)cc1` [Compound 340, (S)-2-amino-N-((6-(4-methoxyphenyl)-7-oxo-2,3-diphenyl-4,7-dihydropyrazolo[1,5-a]pyrimidin-5-yl)methyl)-3-methylbutanamide] fall in the same range of IC50: 0.1 to 1 µM for the first, 0.1 to 1 µM for the second.

`Cc1[nH]c2c(N3CCC(F)(F)C3)c(-c3ccccc3)nn2c(=O)c1-c1ccc2ncccc2c1` [Compound 316, 3-(3,3-difluoropyrrolidin-1-yl)-5-methyl-2-phenyl-6-(quinolin-6-yl)pyrazolo[1,5-a]pyrimidin-7(4H)-one] and `Cc1[nH]c2c(N3CCC(F)(F)C3)c(-c3ccccc3)nn2c(=O)c1-c1ccc2nccn2c1` [Compound 317, 3-(3,3-difluoropyrrolidin-1-yl)-6-(imidazo[1,2-a]pyridin-6-yl)-5-methyl-2-phenylpyrazolo[1,5-a]pyrimidin-7(4H)-one] fall in the same range of IC50: 0.1 to 1 µM for the first, 0.1 to 1 µM for the second.

`Cc1c(-c2ccc3ncccc3c2)c(=O)n2nc(-c3ccccc3)c(-c3ccccc3)c2n1C` [Compound 318, 4,5-dimethyl-2,3-diphenyl-6-(quinolin-6-yl)pyrazolo[1,5-a]pyrimidin-7(4H)-one] and `O=c1c(-c2ccc3ncccc3c2)c(CO)[nH]c2c(-c3ccccc3)c(-c3ccccc3)nn12` [Compound 319, 5-(hydroxymethyl)-2,3-diphenyl-6-(quinolin-6-yl)pyrazolo[1,5-a]pyrimidin-7(4H)-one] fall in the same range of IC50: 0.1 to 1 µM for the first, 0.1 to 1 µM for the second.

First: O=c1c(-c2ccc3ncccc3c2)c(Cn2cccn2)[nH]c2c(-c3ccccc3)c(-c3ccccc3)nn12 [Compound 320, 5-((1H-pyrazol-1-yl)methyl)-2,3-diphenyl-6-(quinolin-6-yl)pyrazolo[1,5-a]pyrimidin-7(4H)-one]
Second: O=C1NCCN1Cc1[nH]c2c(-c3ccccc3)c(-c3ccccc3)nn2c(=O)c1-c1ccc2ncccc2c1 [Compound 324, 5-((2-oxoimidazolidin-1-yl)methyl)-2,3-diphenyl-6-(quinolin-6-yl)pyrazolo[1,5-a]pyrimidin-7(4H)-one]
The IC50 of the first is lower: 0.1 to 1 µM for the first, 1 to 10 µM for the second. The first is the more potent here.

`O=c1c(-c2ccc3ncccc3c2)c(Cc2ncn[nH]2)[nH]c2c(-c3ccccc3)c(-c3ccccc3)nn12` [Compound 321, 5-((1H-1,2,4-triazol-5-yl)methyl)-2,3-diphenyl-6-(quinolin-6-yl)pyrazolo[1,5-a]pyrimidin-7(4H)-one] and `CNC(=O)c1[nH]c2c(-c3ccccc3)c(-c3ccccc3)nn2c(=O)c1-c1ccc2ncccc2c1` [Compound 325] fall in the same range of IC50: 0.1 to 1 µM for the first, 0.1 to 1 µM for the second.

First: O=C1CNC(=O)N1Cc1[nH]c2c(-c3ccccc3)c(-c3ccccc3)nn2c(=O)c1-c1ccc2ncccc2c1 [Compound 322, 3-((7-oxo-2,3-diphenyl-6-(quinolin-6-yl)-4,7-dihydropyrazolo[1,5-a]pyrimidin-5-yl)methyl)imidazolidine-2,4-dione]
Second: O=C1CN(Cc2[nH]c3c(-c4ccccc4)c(-c4ccccc4)nn3c(=O)c2-c2ccc3ncccc3c2)C(=O)N1 [Compound 323, 1-((7-oxo-2,3-diphenyl-6-(quinolin-6-yl)-4,7-dihydropyrazolo[1,5-a]pyrimidin-5-yl)methyl)imidazolidine-2,4-dione]
The IC50 of the first is higher: 1 to 10 µM for the first, 0.1 to 1 µM for the second.

Compared with `O=C(Nc1[nH]c2c(-c3ccccc3)c(-c3ccccc3)nn2c(=O)c1-c1ccc2ncccc2c1)C1CC1` [Compound 326, N-(7-oxo-2,3-diphenyl-6-(quinolin-6-yl)-4,7-dihydropyrazolo[1,5-a]pyrimidin-5-yl)cyclopropanecarboxamide], `CCC(=O)Nc1[nH]c2c(-c3ccccc3)c(-c3ccccc3)nn2c(=O)c1-c1ccc2ncccc2c1` [Compound 327, N-(7-oxo-2,3-diphenyl-6-(quinolin-6-yl)-4,7-dihydropyrazolo[1,5-a]pyrimidin-5-yl)propionamide] is lower in IC50: 1 to 10 µM for the first, 0.1 to 1 µM for the second.

First: O=C(NCc1cc[nH]n1)c1[nH]c2c(-c3ccccc3)c(-c3ccccc3)nn2c(=O)c1-c1ccc2ncccc2c1 [Compound 328, N-((1H-pyrazol-3-yl)methyl)-7-oxo-2,3-diphenyl-6-(quinolin-6-yl)-4,7-dihydropyrazolo[1,5-a]pyrimidine-5-carboxamide]
Second: O=C(NCCO)c1[nH]c2c(-c3ccccc3)c(-c3ccccc3)nn2c(=O)c1-c1ccc2ncccc2c1 [Compound 329, N-(2-hydroxyethyl)-7-oxo-2,3-diphenyl-6-(quinolin-6-yl)-4,7-dihydropyrazolo[1,5-a]pyrimidine-5-carboxamide]
The IC50 of the first is higher: 1 to 10 µM for the first, 0.1 to 1 µM for the second. The second is the more potent here.

`Cc1[nH]c2c(-c3ccccc3)c(-c3ccccc3)nn2c(=O)c1-c1ccc2ncnc(N)c2c1` [Compound 330, 6-(4-aminoquinazolin-6-yl)-5-methyl-2,3-diphenylpyrazolo[1,5-a]pyrimidin-7(4H)-one] and `Cc1[nH]c2c(-c3ccccc3)c(-c3ccccc3)nn2c(=O)c1-c1ccc2nccnc2c1` [Compound 331, 5-methyl-2,3-diphenyl-6-(quinoxalin-6-yl)pyrazolo[1,5-a]pyrimidin-7(4H)-one] fall in the same range of IC50: 0.1 to 1 µM for the first, 0.1 to 1 µM for the second.

`COc1ccc(-c2c(C)[nH]c3c(-c4ccccc4)c(-c4ccccc4)nn3c2=O)cn1` [Compound 333, 6-(6-methoxypyridin-3-yl)-5-methyl-2,3-diphenylpyrazolo[1,5-a]pyrimidin-7(4H)-one] and `Cc1[nH]c2c(-c3ccccc3)c(-c3ccccc3)nn2c(=O)c1-c1ccc2occc2c1` [Compound 334, 6-(benzofuran-5-yl)-5-methyl-2,3-diphenylpyrazolo[1,5-a]pyrimidin-7(4H)-one] fall in the same range of IC50: 0.1 to 1 µM for the first, 0.1 to 1 µM for the second.

`Cc1[nH]c2c(-c3ccccc3)c(-c3ccccc3)nn2c(=O)c1-c1ccc2nnccc2c1` [Compound 335, 6-(cinnolin-6-yl)-5-methyl-2,3-diphenylpyrazolo[1,5-a]pyrimidin-7(4H)-one] and `COc1ccc(-c2c(Cn3cnnn3)[nH]c3c(-c4ccccc4)c(-c4ccccc4)nn3c2=O)cc1` [Compound 338, 5-((1H-tetrazol-1-yl)methyl)-6-(4-methoxyphenyl)-2,3-diphenylpyrazolo[1,5-a]pyrimidin-7(4H)-one] fall in the same range of IC50: 0.1 to 1 µM for the first, 0.1 to 1 µM for the second.

`Cc1[nH]c2c(-c3ccccc3)c(-c3ccccc3)nn2c(=O)c1C1=CCC(=O)CC1` [Compound 336, 5-methyl-6-(4-oxocyclohex-1-en-1-yl)-2,3-diphenylpyrazolo[1,5-a]pyrimidin-7(4H)-one] and `Cc1[nH]c2c(-c3ccccc3)c(-c3ccccc3)nn2c(=O)c1C1=CCC(O)CC1` (centres unmarked) [Compound 337, 6-(4-hydroxycyclohex-1-en-1-yl)-5-methyl-2,3-diphenylpyrazolo[1,5-a]pyrimidin-7(4H)-one] fall in the same range of IC50: 0.1 to 1 µM for the first, 0.1 to 1 µM for the second.

Work on `COc1ccc(-c2c(Cn3ncnn3)[nH]c3c(-c4ccccc4)c(-c4ccccc4)nn3c2=O)cc1` [Compound 339, 5-((2H-tetrazol-2-yl)methyl)-6-(4-methoxyphenyl)-2,3-diphenylpyrazolo[1,5-a]pyrimidin-7(4H)-one] yielded an IC50 of 0.1 to 1 µM.
